From patent publication US20140357577A1, “HIV Membrane Fusion Inhibitors” (priority 2011, published 2014)
Starred links: 1 amine or outer side, 2 acyl side, 3 side chain; linkers in the order of their positions; H or OH if unused. *: point of attachment. Palmitoyl = CCCCCCCCCCCCCCCC(=O)*; Suc = O=C(CCC(=O)[*:2])[*:1]; Pentanoyl = CCCCC(=O)*

What was measured:
[1] = system: HIV mutant virus strain HXB2D with mutation Q40H in the gp41 gene; test: Standard AVE, HXB2D site directed mutant Q40H; type: cell-based, HIV-1; conditions: fold change vs wild type strain HXB2D
From the text: • Standard Anti-Viral-Experiment “AVE” (wild type HIV strain IIIB+HIV strain HXB2D side directed mutants V38A and Q40H)
The HIV-1 replication assay measures virus replication (HIV wild type virus strain 111B or HXB2D, or a HIV mutant virus strain HXB2D with mutation V38A or Q40H in the gp41 gene) as an induction of enhanced green fluorescent protein (EGFP) expression. The indicator MT4-LTR-EGFP cells contain an EGFP gene under the control of the HIV-1 LTR promoter sequence. Successful HIV-1 infection results in viral Tat protein expression and subsequent induction of EGFP expression. Compounds/peptides inhibiting HIV-1 infection are expected to reduce EGFP expression as compared to the untreated HIV-infected control.
Serial 4-fold dilutions of test compounds/peptides were mixed with HIV-1 (IIIB, HXB2D, or a HXB2D mutant virus (V38A or Q40H)) and MT4-LTR-EGFP cells and incubated at 37° C. After 3 days, the wells were examined for EGFP expression using an argon laser-scanning microscope. The effective compound/peptide concentration inhibiting 50% of the virus-induced EGFP signal (EC50) was determined by linear interpolation of the EGFP signal vs. logarithm of the compound concentration; (T20, C34 and Sifuvirtide were added as reference compounds). For the V38A and Q40H mutant viruses, results were reported as a fold change in EC50, as compared with a drug-susceptible wild type strain HXB2D, which forms the backbone of the mutant virus. • Standard AVE (50% Human Serum)

[2] = system: HIV-IIIB + 50% HS; test: Standard AVE (50% Human Serum), HIV-1 replication assay in MT4-LTR-EGFP cells; type: cell-based; conditions: fold change vs EC50 in the assay without human serum
Summary of the method: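 MT4-LTR-EGFP cells infected with HIV-1 alongside 4-fold serial compound dilutions in 50% human serum, 3 days at 37 °C. EGFP read by laser-scanning microscopy; EC50 by linear interpolation against log concentration, reported as fold change versus EC50 without serum.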

[3] = system: HIV wild type virus strain IIIB; test: Standard Anti-Viral-Experiment (AVE), HIV-1 replication assay in MT4-LTR-EGFP cells, wild type IIIB; type: cell-based; conditions: 3 days, EGFP signal
Summary of the method: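 MT4-LTR-EGFP cells infected with HIV-1 IIIB, HXB2D or HXB2D gp41 mutants V38A/Q40H alongside serial 4-fold compound dilutions, 3 days at 37° C. EGFP read by laser-scanning microscopy; EC50 by linear interpolation against log concentration. Mutant results given as fold change in EC50 versus wild-type HXB2D.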

Row | Substance | HIV-HXB2D Q40H mutant (fold change in EC50) [1] | HIV-IIIB + 50% HS (Fold change in EC50) [2] | EC50 [3]
1 | Pentanoyl-ECYLCLIEELIRKAQEQQEKNEAALR-NH2 (cysteine pairing not given here) [Peptide 92] | 3 | 5 | 1 nM
2 | Pentanoyl-ECYLRCIEELIRKAQEQQEKNEAALR-NH2 (cysteine pairing not given here) [Peptide 91] | 5 | 5 | 1 nM
3 | Pentanoyl-ENYLALIEELIRKAQEQQEKNEAALR-NH2 (SMILES CCCCC(=O)N[C@@H](CCC(=O)O)C(=O)N[C@@H](CC(N)=O)C(=O)N[C@@H](Cc1ccc(O)cc1)C(=O)N[C@@H](CC(C)C)C(=O)N[C@@H](C)C(=O)N[C@@H](CC(C)C)C(=O)N[C@H](C(=O)N[C@@H](CCC(=O)O)C(=O)N[C@@H](CCC(=O)O)C(=O)N[C@@H](CC(C)C)C(=O)N[C@H](C(=O)N[C@@H](CCCNC(=N)N)C(=O)N[C@@H](CCCCN)C(=O)N[C@@H](C)C(=O)N[C@@H](CCC(N)=O)C(=O)N[C@@H](CCC(=O)O)C(=O)N[C@@H](CCC(N)=O)C(=O)N[C@@H](CCC(N)=O)C(=O)N[C@@H](CCC(=O)O)C(=O)N[C@@H](CCCCN)C(=O)N[C@@H](CC(N)=O)C(=O)N[C@@H](CCC(=O)O)C(=O)N[C@@H](C)C(=O)N[C@@H](C)C(=O)N[C@@H](CC(C)C)C(=O)N[C@@H](CCCNC(=N)N)C(N)=O)[C@@H](C)CC)[C@@H](C)CC) [Peptide 52] | 38 | 2 | 1 nM
4 | SUC-ACYLACIDELIAKAQEQQEKNEAALR-NH2 (Suc-ACYLACIDELIAKAQEQQEKNEAALR-NH2; cysteine pairing not given here) [Peptide 36] | 373 | 0.4 | 2 nM
5 | SUC-ACYLACIDELIKKAQEQQEKNEAALR-NH2 (Suc-ACYLACIDELIKKAQEQQEKNEAALR-NH2; cysteine pairing not given here) [Peptide 30] | 145 | 0.5 | 1 nM
6 | SUC-CYLACIEALIRAAQEQQEKNEAALR-NH2 (Suc-CYLACIEALIRAAQEQQEKNEAALR-NH2; cysteine pairing not given here) [Peptide 26] | 311 | 1 | 1 nM
7 | SUC-ECYLACIEALIRAAQEQQEKNEAALR-NH2 (Suc-ECYLACIEALIRAAQEQQEKNEAALR-NH2; cysteine pairing not given here) [Peptide 33] | 269 | 0.6 | 1 nM
8 | Suc-ACYLACIEALIRAAQEQQEKNEAALR-NH2 (cysteine pairing not given here) [Peptide 43] | 103 | 1 | 2 nM
9 | Suc-ACYLACIEELIRKAQEQQEKNEAALr-NH2 [Peptide 34] | 265 | 0.3 | 2 nM
10 | Suc-ANYLALIEALIRAAQEQQEKNEAALK(palmitoyl)-NH2 (Suc-ANYLALIEALIRAAQEQQEKNEAALK(Palmitoyl)-NH2; SMILES CCCCCCCCCCCCCCCC(=O)NCCCC[C@H](NC(=O)[C@H](CC(C)C)NC(=O)[C@H](C)NC(=O)[C@H](C)NC(=O)[C@H](CCC(=O)O)NC(=O)[C@H](CC(N)=O)NC(=O)[C@H](CCCCN)NC(=O)[C@H](CCC(=O)O)NC(=O)[C@H](CCC(N)=O)NC(=O)[C@H](CCC(N)=O)NC(=O)[C@H](CCC(=O)O)NC(=O)[C@H](CCC(N)=O)NC(=O)[C@H](C)NC(=O)[C@H](C)NC(=O)[C@H](CCCNC(=N)N)NC(=O)[C@@H](NC(=O)[C@H](CC(C)C)NC(=O)[C@H](C)NC(=O)[C@H](CCC(=O)O)NC(=O)[C@@H](NC(=O)[C@H](CC(C)C)NC(=O)[C@H](C)NC(=O)[C@H](CC(C)C)NC(=O)[C@H](Cc1ccc(O)cc1)NC(=O)[C@H](CC(N)=O)NC(=O)[C@H](C)NC(=O)CCC(=O)O)[C@@H](C)CC)[C@@H](C)CC)C(N)=O) [Peptide 13] | 9 | 9 | 0.4 nM
11 | Suc-ANYLALIEALIRAAQEQQEKNEAALR-NH2 (SMILES CC[C@H](C)[C@H](NC(=O)[C@H](CC(C)C)NC(=O)[C@H](C)NC(=O)[C@H](CCC(=O)O)NC(=O)[C@@H](NC(=O)[C@H](CC(C)C)NC(=O)[C@H](C)NC(=O)[C@H](CC(C)C)NC(=O)[C@H](Cc1ccc(O)cc1)NC(=O)[C@H](CC(N)=O)NC(=O)[C@H](C)NC(=O)CCC(=O)O)[C@@H](C)CC)C(=O)N[C@@H](CCCNC(=N)N)C(=O)N[C@@H](C)C(=O)N[C@@H](C)C(=O)N[C@@H](CCC(N)=O)C(=O)N[C@@H](CCC(=O)O)C(=O)N[C@@H](CCC(N)=O)C(=O)N[C@@H](CCC(N)=O)C(=O)N[C@@H](CCC(=O)O)C(=O)N[C@@H](CCCCN)C(=O)N[C@@H](CC(N)=O)C(=O)N[C@@H](CCC(=O)O)C(=O)N[C@@H](C)C(=O)N[C@@H](C)C(=O)N[C@@H](CC(C)C)C(=O)N[C@@H](CCCNC(=N)N)C(N)=O) [Peptide 7] | 764 | 0.6 | 2 nM
12 | Suc-ECYLRCIEELIRKAQEQQEKNEAALR-NH2 (cysteine pairing not given here) [Peptide 29] | 98 | 0.6 | 0.8 nM
13 | Suc-ENYLRLIEELIRKAQEQQEKNEAALR-NH2 (SMILES CC[C@H](C)[C@H](NC(=O)[C@H](CC(C)C)NC(=O)[C@H](CCC(=O)O)NC(=O)[C@H](CCC(=O)O)NC(=O)[C@@H](NC(=O)[C@H](CC(C)C)NC(=O)[C@H](CCCNC(=N)N)NC(=O)[C@H](CC(C)C)NC(=O)[C@H](Cc1ccc(O)cc1)NC(=O)[C@H](CC(N)=O)NC(=O)[C@H](CCC(=O)O)NC(=O)CCC(=O)O)[C@@H](C)CC)C(=O)N[C@@H](CCCNC(=N)N)C(=O)N[C@@H](CCCCN)C(=O)N[C@@H](C)C(=O)N[C@@H](CCC(N)=O)C(=O)N[C@@H](CCC(=O)O)C(=O)N[C@@H](CCC(N)=O)C(=O)N[C@@H](CCC(N)=O)C(=O)N[C@@H](CCC(=O)O)C(=O)N[C@@H](CCCCN)C(=O)N[C@@H](CC(N)=O)C(=O)N[C@@H](CCC(=O)O)C(=O)N[C@@H](C)C(=O)N[C@@H](C)C(=O)N[C@@H](CC(C)C)C(=O)N[C@@H](CCCNC(=N)N)C(N)=O) [Peptide 20] | 80 | 1 | 0.7 nM
